Test results taken from patent publication US6455578B1, “Aromatic derivatives and iron complexes thereof for the use as normalizing agents of the iron level” (Laboratoire Medidom S.A., priority 1998, dated 2002).
Blank lines part the entries; values can stand above or below the compound they belong to.

Legend:
[1] = Stability constant of the Fe(III) complex by cyclic voltammetry; type: physicochemical
Experimental: wherein R5 is CH3, has been measured by voltammetry with a Pt electrode as the working electrode and with a calomel electrode as the reference electrode, obtaining a stability constant equal to 3.0×10^10.
The complexation cynetics has been moreover studied by cyclic voltammetry with a Pt electrode as the working electrode and a calomel electrode as the reference electrode, in the following conditions:ferric perchlorate (7 mg) is dissolved in 20 ml of a NaCl solution 150 mM containing 5% of DMSO, and this solution is put into the voltammetric cell for the plot registration; from this plot the half-wave potential for the ferric salt can be deduced: (E½)s Fe^3+/Fe^2+=0.420 V.
3-hydroxy-2-methyl-4H-1-benzopyran-4-one (10.5 mg) is dissolved in DMSO (3 ml), and with the so obtained solution 4 additions are made to the voltammetric cell, registering the cyclic voltammetric plot after every addition. […]
The stability constant of the complex is calculated according to the following formula: [formula]
wherein (E½)s e (E½)c are the half-wave potential of the salt and, respectively, of the complex above reported, n is the number of electrons, β is the stability constant of the complex and c is its concentration, and p is the number of chelating agent molecules in the complex. The so calculated value of the stability constant is […].

[2] = Partition test between n-octanol and aqueous solution pH 7.4; type: physicochemical; conditions: for partition between n-octanol and aqueous solution (result in words): n-octanol / aqueous 20 mM tris(hydroxymethyl)aminomethane chlorhydrate pH 7.4, Example 7: concentration 100 mM
Experimental: In particular, partition experiments have been carried out between n-ottanol and an aqueous solution 20 mM of tris(hydroxymethyl)aminomethane chlorohydrate brought to pH=7.4 by adding sodium phosphate, obtaining values of the ripartition coefficient, expressed as the ratio between the concentration of the compound in the organic phase and that in the aqueous phase, tipically higher than 20, for the present formula (I) compounds as well as for the Fe (III) complexes thereof.
The partition coefficient between n-octanol and an aqueous solution 20 mM of tris(hydroxymethyl)aminomethane brought to pH=7.4 by the addition of sodium phosphate has been determined by spectrophotometry at room temperature for 3-hydroxy-2-methyl-4H-1-benzopyran-4-one and for the related Fe(III) complex.
In the aqueous solution the 3-hydroxy-2-methyl-4H-1-benzopyran-4one obtained as described in Example 1 was dissolved in the quantity sufficient to have a concentration equal to 10^−4 M. 5 ml of said solution were centrifuged with 5 ml of n-octanol, and the two resulting phases were separated for a concentration determination on each by spectrophotometry.
The partition coefficient, expressed as the ratio between the concentration of the compound in n-octanol and its concentration in the aqueous solution, resulted 24. In the same aqueous solution above described the Fe(III) complex obtained as in Example 4 was dissolved, in the sufficient quantity to obtain a concentration equal to 2×10^−4 M. 5 ml of said solution are centrifuged with 5 ml of n-octanol, then the two resulting phases were separated for a concentration determination on each by spectrophotometry. A partition coefficient equal to 25 was obtained.
According to the procedure described in Example 6 partition data were determined between n-octanol and an aqueous solution 20 mM of tris(hydroxymethyl)aminomethane chlorhydrate brought to pH 7.4 by addition of sodium phosphate, for 3-hydroxy-2-(5-hydroxypentyl)-4H-1-benzopyran-4-one prepared as in Example 3 as well as for the related Fe(III) complex prepared as in Example 5.
In the aqueous solution 3-hydroxy-2-(5-hydroxypentyl)-4H-1-benzopyran-4-one as prepared in Example 3 was dissolved so to obtain a concentration equal to 100 mM. 5 ml of said solution were centrifuged with 5 ml of n-octanol, then the two resulting phases, the aqueous and the organic one, were separated for a concentration determination on each by spectrophotometry.
The same experiment was repeated by dissolving the Fe(III) complex prepared as in Example 5 in the above described aqueous solution.

erythrocytes = experiment: In vitro tests on permeation into erythrocytes; type: in vitro ADME, rat; conditions: for distribution between previously overloaded erythrocytes and the aqueous medium of resuspension: loaded erythrocytes resuspended in fresh plasma or fresh buffer; for distribution between previously overloaded erythrocytes and the aqueous medium of resuspension / found in the aqueous medium containing the phosphate buffer after resuspension of loaded erythrocytes / found in the plasmatic medium after resuspension of loaded erythrocytes: further 30 minutes at 37 C; for time in which a balance between intracellular and extracellular environment is reached: rat erythrocytes; for found in the aqueous medium containing the phosphate buffer after resuspension of loaded erythrocytes: loaded erythrocytes resuspended in fresh buffer; for found in the plasmatic medium after resuspension of loaded erythrocytes: loaded erythrocytes resuspended in their plasma
Experimental: Solutions of 3-hydroxy-2-methyl-4H-1-benzopyran-4-one prepared as in Example 1 and the related Fe(III) complex obtained in acetone as in Example 4 were used for suitable sampling in incubation flasks. For the complex acetone is evaporated, and the biologic samples are then added to the residue. Whole blood of rat deprived of leucocytes, or alternatively erythrocytes washed and resuspended in 127 mM of sodium phosphate 50% buffer (pH=7.4) and containing 23 mM of NaCl, were added into the incubation flasks and incubated at 37° C. for 15 and respectively 30 minutes.
At those times erythrocytes were separeted by centrifugation and separately extracted together with the supernatants with 2 volumes of ethyl acetate. The related quantities of the tested substances were measured by spectrophotometry in ethyl acetate and compared with suitable standards. After 30 minutes of incubation the 3-hydroxy-2-methyl-4H-1-benzopyran-4-one as well as the related Fe(III) complex were found in the erythrocytes for 51% and for 49% in the aqueous medium. After 30 minutes of incubation 50% of the sedimented erythrocytes are resuspended in their fresh plasma and the remaining 50% in fresh buffer.
Erhytrocytes of rat were separated from their plasma deprived of leucocytes. Part of the erythrocytes were resuspended in sodium phosphate 50% buffer (pH=7.4), and another part of the erythrocytes were joined to part of their plasma so to obtained a 50% hematocrit. To both suspensions were added alternatively 100 mg/l of 3-hydroxy-2-(5-hydroxypentyl)-4H-benzopyran-4-one prepared as in Example 3 and 50 mg/l of the related Fe(III) complex prepared as in Example 5, and the incubation was made at 37° C. After 30 minutes the erythrocytes were separated by centrifugation and extracted separately together with supernatants with ethyl acetate. The quantities of the tested substances were measured by spectrophotometry in ethyl acetate and compared to suitable standards.
After 30 minutes incubation the 40% of 3-hydroxy-2-(5-hydroxypenthyl)-4H-1-benzopyran-4-one, as well as of the ferric complex thereof, were found in the erythrocytes and the remaining 60% in the medium represented by plasma. When the medium is the phosphate buffer the 60% of the tested compounds were found in erythrocytes and the remaining 40% in the medium.
After sedimentation 50% of the erythrocytes containing the tested compounds was resuspended in their plasma and the remaining 50% in fresh buffer. After a further 30 minutes incubation at 37° C. 60% of 3-hydroxy-2-(5-hydroxypentyl)-4H-1-benzopyran-4-one and of the related complex were found in the plasmatic medium and the remaining 40% in the aqueous medium containing the phosphate buffer. Therefore the chelating agent as well as the related ferric complex do permeate into cellular membranes in both directions, and are uniformly distributed in the intracellular and in the extracellular environment.

[3] = In vivo tests on permeation of rat erythrocytes / detection in rat tissues and excretion; conditions: for Qualitative detection in Erythrocytes / Qualitative detection in Plasma / Qualitative detection in Brain / Qualitative detection in Liver / Qualitative detection in Urine: rat, single oral dose 20 mg per Kg
Experimental: The tests are performed on male rats Sprague-Dawley weighting from 250 to 300 g.
The chelating agent 3-hydroxy-2-methyl-4H-1-benzopyran-4-one prepared as in Example 1, vehiculated by 4 parts of β-cyclodextrine for each part of chelating agent, is administered to the rats in a single oral dose comprising 20 mg of chelating agent per Kg of body weight.
The chelating agent 3-hydroxy-2-(5-hydroxypentyl)-4H-1-benzopyran-4-one prepared as in Example 3 is administered to the rats in a single oral dose, comprising 2% of methyl cellulose and 20 mg of chelating agent per Kg of body weight.

[4] = In vivo tests on permeation of rat erythrocytes / detection in rat tissues and excretion; conditions: rats, 20 mg per Kg in DMSO by intraperitoneal route; 15, 30 and 60 minutes after treatment
[5] = rat whole blood deprived of leucocytes or washed erythrocytes in phosphate buffer pH 7.4, 37 C, 30 minutes incubation
[6] = medium phosphate buffer pH 7.4, 37 C, 30 minutes, 100 mg/l ligand or 50 mg/l complex
[7] = medium plasma, 50% hematocrit, 37 C, 30 minutes, 100 mg/l ligand or 50 mg/l complex
[8] = male Sprague-Dawley rats, single oral dose 20 mg per Kg with beta-cyclodextrine

Compound: Fe(III) complex of 3-hydroxy-2-methyl-4H-1-benzopyran-4-one
- half-wave potential of the complex (E1/2) Fe3+/Fe2+ ([1]; cyclic voltammetry, after first addition of 0.5 ml chelating agent solution in DMSO): 0.120 V
- stability constant of the Fe(III) complex ([1]; voltammetry, Pt working electrode, calomel reference electrode, NaCl 150 mM containing 5% DMSO): 3.0×10^10
- partition coefficient (concentration in n-octanol / concentration in aqueous solution) ([2]; n-octanol / aqueous 20 mM tris(hydroxymethyl)aminomethane pH 7.4, room temperature, spectrophotometry, ligand 10^-4 M, complex 2x10^-4 M): 25
- distribution between previously overloaded erythrocytes and the aqueous medium of resuspension (erythrocytes): equally distributed
- time in which a balance between intracellular and extracellular environment is reached (erythrocytes; 37 C): ca. 30 minutes
- found in the aqueous medium (erythrocytes; [5]): 49%
- found in the erythrocytes (erythrocytes; [5]): 51%

- partition between n-octanol and aqueous solution (result in words) [2]: completely pass in the alcoholic phase
- found in the aqueous medium containing the phosphate buffer after resuspension of loaded erythrocytes (erythrocytes): 40%
- found in the plasmatic medium after resuspension of loaded erythrocytes (erythrocytes): 60%
- found in erythrocytes (erythrocytes; [6]): 60%
- found in the medium (erythrocytes; [6]): 40%
- found in the erythrocytes (erythrocytes; [7]): 40%
- found in the medium (erythrocytes; [7]): 60%
Compound: Fe(III) complex of 3-hydroxy-2-(5-hydroxypentyl)-4H-1-benzopyran-4-one

- logD ([2]; n-octanol / aqueous 20 mM tris(hydroxymethyl)aminomethane pH 7.4, room temperature, spectrophotometry, ligand 10^-4 M, complex 2x10^-4 M, read-out: partition coefficient (concentration in n-octanol / concentration in aqueous solution) (converted)): 1.38
- distribution between previously overloaded erythrocytes and the aqueous medium of resuspension (erythrocytes): equally distributed
- time in which a balance between intracellular and extracellular environment is reached (erythrocytes; 37 C): ca. 30 minutes
- found in the aqueous medium (erythrocytes; [5]): 49%
- found in the erythrocytes (erythrocytes; [5]): 51%
- presence in urine (onset) [3, 8]: starting from twenthyfourth hour
- time of maximum presence (erythrocytes, brain and liver) [3, 8]: maximum in the fourth hour
- presence in erythrocytes, brain and liver (first detection) ([3]; male Sprague-Dawley rats, single oral dose 20 mg per Kg with beta-cyclodextrine, spectrophotometry and fluorimetry): found already in the first hour
- Qualitative detection in Erythrocytes ([3]; 1/2 hr after administration): p(+)
- Qualitative detection in Plasma ([3]; 1/2 hr after administration): p(+)
- Qualitative detection in Brain ([3]; 1 hr after administration): p(+)
- Qualitative detection in Erythrocytes ([3]; 1 hr after administration): p(++)
- Qualitative detection in Liver ([3]; 1 hr after administration): p(+)
- Qualitative detection in Plasma ([3]; 1 hr after administration): p(++)
- Qualitative detection in Brain ([3]; 4 hr after administration): p(++)
- Qualitative detection in Erythrocytes ([3]; 4 hr after administration): p(+++)
- Qualitative detection in Liver ([3]; 4 hr after administration): p(+++)
- Qualitative detection in Plasma ([3]; 4 hr after administration): p(++)
- Qualitative detection in Urine ([3]; 4 hr after administration): p(+)
- Qualitative detection in Brain ([3]; 24 hr after administration): p(++)
- Qualitative detection in Liver ([3]; 24 hr after administration): p(++)
- Qualitative detection in Urine ([3]; 24 hr after administration): p(++)
- Qualitative detection in Urine ([3]; 48 hr after administration): p(+++)
- melting point: 179 to 180 °C
Compound: Cc1oc2ccccc2c(=O)c1O [3-hydroxy-2-methyl-4H-1-benzopyran-4-one]

- partition between n-octanol and aqueous solution (result in words) [2]: completely pass in the alcoholic phase
- found in the aqueous medium containing the phosphate buffer after resuspension of loaded erythrocytes (erythrocytes): 40%
- found in the plasmatic medium after resuspension of loaded erythrocytes (erythrocytes): 60%
- found in erythrocytes (erythrocytes; [6]): 60%
- found in the medium (erythrocytes; [6]): 40%
- found in the erythrocytes (erythrocytes; [7]): 40%
- found in the medium (erythrocytes; [7]): 60%
- presence in urine ([3]; male Sprague-Dawley rats, single oral dose 20 mg per Kg in 2% methyl cellulose, 12, 24 and 48 hours from administration): has been revealed
- presence in plasma ([3]; rats, 20 mg per Kg in DMSO by intraperitoneal route, 15, 30 and 60 minutes after treatment): has been revealed
- melting point: 111 to 112 °C
- presence in erythrocytes [4]: has been revealed
Compound: O=c1c(O)c(CCCCCO)oc2ccccc12 [3-hydroxy-2-(5-hydroxypentyl)-4H-1-benzopyran-4-one]
